Common to all, as to format: functional
Assay [1] is described as follows: (§1) Antimicrobial activity against Francisella tularensis subsp. tularensis after 48 hrs by broth microdilution method. For orientation: Dilution methods test growth across graded concentrations, often in twofold steps.
Assay [2] is described as follows: (§2) Antimicrobial activity against Francisella tularensis subsp. holarctica after 48 hrs by broth microdilution method.
A short description of assay [3]: Antimicrobial activity against Francisella tularensis subsp. holarctica LVS after 48 hrs by broth microdilution method.
Assay [4] has as its system Francisella tularensis subsp. tularensis. The description is as §1.
Assay [5] has as its system Francisella tularensis subsp. holarctica. The description is as §2.

≈ marks a conversion by molar mass, not a printed value.

By MIC50 is commonly meant an inhibitory concentration at the 50% level, which refers to growth in some studies and to a panel of isolates in others. What is called MIC90 is the lowest concentration that inhibits either 90% of growth or 90% of the strains tested, depending on the study. Low readings indicate greater potency, high ones weaker potency. Usually MIC stands for the lowest concentration found to suppress growth. High values mean weaker potency, low ones greater potency.

In assay [1], `O=C(N[C@H](CO)[C@H](O)c1ccc([N+](=O)[O-])cc1)C(Cl)Cl` [CHLORAMPHENICOL] yielded an MIC50 of 1 µg/mL (≈ 3.09 µM) and an MIC90 of 2 µg/mL (≈ 6.19 µM). In assay [2], the MIC50 came to 2 µg/mL (≈ 6.19 µM) and the MIC90 was 2 µg/mL (≈ 6.19 µM).
In assay [1], `O=C(O)c1cn(C2CC2)c2cc(N3CCNCC3)c(F)cc2c1=O` [CIPROFLOXACIN] gave an MIC50 of 0.015 µg/mL (≈ 0.0453 µM) and an MIC90 of 0.03 µg/mL (≈ 0.0905 µM). Besides, in assay [2], the MIC50 is 0.03 µg/mL (≈ 0.0905 µM) and the MIC90 came to 0.06 µg/mL (≈ 0.181 µM).
With `C[C@H]1c2cccc(O)c2C(=O)C2=C(O)[C@]3(O)C(=O)C(C(N)=O)=C(O)[C@@H](N(C)C)[C@@H]3[C@@H](O)[C@@H]21.O` [DOXYCYCLINE], in assay [1], the MIC50 was determined as 0.5 µg/mL and the MIC90 amounted to 1 µg/mL. In assay [2], this molecule had an MIC50 of 1 µg/mL and an MIC90 of 2 µg/mL.
`CC[C@H]1OC(=O)[C@H](C)[C@@H](O[C@H]2C[C@@](C)(OC)[C@@H](O)[C@H](C)O2)[C@H](C)[C@@H](O[C@@H]2O[C@H](C)C[C@H](N(C)C)[C@H]2O)[C@](C)(O)C[C@@H](C)C(=O)[C@H](C)[C@@H](O)[C@]1(C)O` [ERYTHROMYCIN]: in assay [1], it took 0.5 µg/mL (≈ 0.681 µM) to inhibit growth (MIC), the MIC50 stood at 0.5 µg/mL (≈ 0.681 µM) and the MIC90 came out at 0.5 µg/mL (≈ 0.681 µM). Moreover, in assay [2], the MIC50 stood at 2 µg/mL (≈ 2.73 µM) and the MIC90 amounted to 2 µg/mL (≈ 2.73 µM). Further, in assay [3], the minimal inhibitory concentration (MIC) is more than 256 µg/mL.
As to `C[C@H]1COc2c(N3CCN(C)CC3)c(F)cc3c(=O)c(C(=O)O)cn1c23.C[C@H]1COc2c(N3CCN(C)CC3)c(F)cc3c(=O)c(C(=O)O)cn1c23.O` [LEVOFLOXACIN], in assay [1], the MIC50 was found to be 0.03 µg/mL and the MIC90 came to 0.06 µg/mL. For the same molecule, in assay [2], the MIC50 came to 0.03 µg/mL and the MIC90 turned out to be 0.06 µg/mL.
For `CN[C@@H]1[C@H](O[C@H]2[C@H](O[C@H]3[C@H](O)[C@@H](O)[C@H](N=C(N)N)[C@@H](O)[C@@H]3N=C(N)N)O[C@@H](C)[C@]2(O)C=O)O[C@@H](CO)[C@H](O)[C@H]1O` [STREPTOMYCIN], the MIC50 in assay [1] and in assay [2] was 1 µg/mL (≈ 1.72 µM) each time. Moreover, the MIC90 in assay [1] and in assay [2] was 2 µg/mL (≈ 3.44 µM) throughout.
`CN(C)[C@@H]1C(O)=C(C(N)=O)C(=O)[C@@]2(O)C(O)=C3C(=O)c4c(O)cccc4[C@@](C)(O)[C@H]3C[C@@H]12` [TETRACYCLINE]: the MIC50 in assay [1] and in assay [2] was 0.5 µg/mL (≈ 1.13 µM) each time. Also, the MIC90 in assay [1] and in assay [2] was 1 µg/mL (≈ 2.25 µM) each time.
In assay [4], GENTAMICIN came in with an MIC50 of 0.06 µg/mL and an MIC90 of 0.12 µg/mL. In assay [5], this molecule returned an MIC50 of 0.12 µg/mL and an MIC90 of 0.25 µg/mL.

Values taken from ChEMBL document CHEMBL1255369, “In vitro susceptibility of isolates of Francisella tularensis types A and B from North America” (2008).
